Laboratory results as given in the supplement of paper PMC10307832.

Experiments:
Assay in all cases: relative viability (nuclei count vs DMSO), 5 days (fraction); higher = more cells survive
Shikonin + Navitoclax = compound: CC(C)=CC[C@@H](O)C1=CC(=O)c2c(O)ccc(O)c2C1=O [Shikonin] + CC1(C)CCC(c2ccc(Cl)cc2)=C(CN2CCN(c3ccc(C(=O)NS(=O)(=O)c4ccc(N[C@H](CCN5CCOCC5)CSc5ccccc5)c(S(=O)(=O)C(F)(F)F)c4)cc3)CC2)C1 [Navitoclax] (partner 0.5 µM)
Method in brief: (§1)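 Nuclei were stained with Hoechst during a one-step fixation (final 0.05% Triton X-100, 1% formaldehyde, 1 ug/ml Hoechst) carried out 5 days after dosing, then counted on 4× images. The cells, lung cancer lines in 1536-well plates, had been dosed by pin tool the day after seeding with one drug alone or a fixed anchor-drug dose plus five library-drug doses (not always all listed) in √10 steps. Relative viability is the nuclei count in treated wells divided by that in vehicle wells, and each value is the median of duplicate plates.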

[1] = compound: CC(C)N(CCCNC(=O)Nc1ccc(C(C)(C)C)cc1)C[C@H]1O[C@@H](n2ccc3c(N)ncnc32)[C@H](O)[C@@H]1O + C[C@]1(O)C[C@@H](c2nc(-c3ccc4ccc(-c5ccccc5)nc4c3)c3c(N)nccn32)C1 [Linsitinib] (partner 1 µM)
Method in brief: as §1

[2] = compound: CC(C)N(CCCNC(=O)Nc1ccc(C(C)(C)C)cc1)C[C@H]1O[C@@H](n2ccc3c(N)ncnc32)[C@H](O)[C@@H]1O + C[C@@H](Oc1cc(-c2cnn(C3CCNCC3)c2)cnc1N)c1c(Cl)ccc(F)c1Cl [Crizotinib] (partner 1 µM)
Method in brief: as §1

Shikonin + Palbociclib = compound: CC(C)=CC[C@@H](O)C1=CC(=O)c2c(O)ccc(O)c2C1=O [Shikonin] + CC(=O)c1c(C)c2cnc(Nc3ccc(N4CCNCC4)cn3)nc2n(C2CCCC2)c1=O [Palbociclib] (partner 0.5 µM)
Method in brief: as §1

Cell Line	relative viability (Shikonin + Navitoclax; first compound 0.01 µM)	relative viability (Shikonin + Navitoclax; first compound 0.1 µM)	relative viability (Shikonin + Navitoclax; first compound 0.3162 µM)	relative viability (Shikonin + Navitoclax; first compound 1 µM)	relative viability ([1]; first compound 0.08 µM)	relative viability ([1]; first compound 0.253 µM)	relative viability ([1]; first compound 0.8 µM)	relative viability ([1]; first compound 2.53 µM)	relative viability ([1]; first compound 8 µM)	relative viability ([2]; first compound 0.08 µM)	relative viability ([2]; first compound 0.253 µM)	relative viability ([2]; first compound 0.8 µM)	relative viability ([2]; first compound 2.53 µM)	relative viability ([2]; first compound 8 µM)	relative viability (Shikonin + Palbociclib; first compound 0.01 µM)	relative viability (Shikonin + Palbociclib; first compound 0.1 µM)	relative viability (Shikonin + Palbociclib; first compound 0.3162 µM)	relative viability (Shikonin + Palbociclib; first compound 1 µM)
HCC-366	1.08	1.06	1.09	1.08	0.597	0.581	0.563	0.547	0.513	0.375	0.545	0.654	0.526	0.478	0.415	0.4	0.316	0.388
HCC-827	1.02	1.08	0.99	0.998	0.936	0.904		0.892	0.89	0.883	0.952		0.949	0.881	0.48	0.517	0.518	0.493
HOP-62	1.05	1.15	1.01	1.04	0.859	0.924	0.989	0.896	0.768	0.926	0.982	0.882	0.748	0.915	0.471	0.581	0.559	0.447
IA-LM	0.879	0.858	0.796	0.654	0.318	0.559	0.413	0.443	0.432	0.868	0.747	0.84	0.939	0.644				
LC-2-ad	0.493	0.413	0.552	0.465	0.886	0.856	0.818	0.79	0.824	0.442	0.506	0.444	0.445	0.407	0.533	0.483	0.441	0.511
LCLC-97TM1	0.46	0.4	0.495	0.277	0.195		0.133	0.158	0.191	0.405		0.37	0.344	0.265	0.293	0.279	0.279	0.23
LCLC-103H					1.04	0.887	0.959	1.04	0.917	0.946	0.93	0.914	1	0.872	0.462	0.498	0.521	0.429
LK-2	0.913	0.866	1.03	0.852	0.678	0.405	0.496	0.554	0.509	0.269	0.232	0.217	0.261	0.229	0.772	0.869	0.773	0.664
LOU-NH91	0.662	0.646	0.736	0.664	0.944	0.873		0.998	0.918	0.755	0.735		0.7	0.721	0.546	0.526	0.549	0.5
NCI-H358					0.775	0.814	0.786	0.823	0.668	0.614	0.554	0.717	0.589	0.448	0.139	0.132	0.131	0.131
NCI-H522															1.03	1.28	0.936	1.17
NCI-H596	0.936	0.911	0.968	0.907	0.991	0.926	1.02	1.08	1.21	0.934	0.796	0.938	1	1.12				
NCI-H650					0.757	0.732	1.04	0.791	0.704	0.63	0.709	0.785	0.719	0.724	0.325	0.314	0.334	0.34
NCI-H661					0.473	0.553	0.585	0.567	0.57	1.05	1.15	1.13	1.08	0.978	0.405	0.395	0.426	0.4
NCI-H1299	1.03	1.09	1.06	1.05	0.876	1.02	0.97	0.918	0.942	0.927	0.941	0.946	0.99	0.9				
NCI-H1395	1.18	1.16	1.14	1.09	1.09	0.881		1.07	0.987						0.524	0.664	0.596	0.628
NCI-H1563					1.16	1.14	1.32	1.27	1.18	0.813	0.963	0.804	0.812	0.82				
NCI-H1648															0.282		0.273	0.238
NCI-H1650	1.3	1.24	1.05	1.07						0.925	1.05		1.06	0.986	0.395	0.448	0.247	0.319
NCI-H1703	1.12	1.08	0.991	0.19	0.67	0.515		0.721	0.612	0.635	0.61	0.685	0.647	0.491				
NCI-H1793	0.43	0.379	0.407	0.76	0.818		0.747	0.86	0.784						0.283	0.321	0.306	0.345
NCI-H2170	0.578	0.511	0.58	0.61						1.12	1.18	1.22	1.19	1.28	0.392	0.376	0.395	0.422
NCI-H2342															0.499	0.465	0.526	0.537
SW 900															0.563	0.559	0.547	0.542
